These results are taken from patent publication US9765075B2, “Substituted bridged urea analogs as sirtuin modulators” (GLAXOSMITHKLINE LLC, priority 2013, dated 2017).

Assay [1] has as its target T1, SIRT1 (Homo sapiens, UniProt Q96EB6).
T1 sequence (Q96EB6 1-747): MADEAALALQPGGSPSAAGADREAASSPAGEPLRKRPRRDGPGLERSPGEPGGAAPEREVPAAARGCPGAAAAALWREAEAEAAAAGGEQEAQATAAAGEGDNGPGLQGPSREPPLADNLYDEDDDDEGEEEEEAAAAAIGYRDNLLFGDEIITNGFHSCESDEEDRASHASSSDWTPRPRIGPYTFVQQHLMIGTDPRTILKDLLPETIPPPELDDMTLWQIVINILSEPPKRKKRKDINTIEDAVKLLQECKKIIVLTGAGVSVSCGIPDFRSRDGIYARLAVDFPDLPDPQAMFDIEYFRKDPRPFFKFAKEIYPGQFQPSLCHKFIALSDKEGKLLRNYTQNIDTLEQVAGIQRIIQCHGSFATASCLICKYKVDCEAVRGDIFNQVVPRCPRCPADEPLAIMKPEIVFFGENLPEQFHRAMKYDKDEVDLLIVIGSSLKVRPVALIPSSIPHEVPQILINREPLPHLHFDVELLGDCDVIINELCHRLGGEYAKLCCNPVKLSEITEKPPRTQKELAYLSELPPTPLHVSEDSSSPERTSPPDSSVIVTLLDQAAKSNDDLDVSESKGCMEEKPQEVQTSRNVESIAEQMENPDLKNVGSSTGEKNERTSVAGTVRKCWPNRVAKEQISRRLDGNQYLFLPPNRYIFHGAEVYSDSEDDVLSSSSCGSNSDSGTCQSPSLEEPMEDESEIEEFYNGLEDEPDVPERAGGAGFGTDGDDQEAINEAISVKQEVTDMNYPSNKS
Briefly: Trp mass spectrometry assay (SIRT1 activation). Type of assay: biochemical. To be noted: Trp mass spectrometry assay; for Tryp AVG EC1.5 (μM): EC1.5 = concentration giving 150% activation of SIRT1; for Emax: percent maximum fold activation of SIRT1, read-out: Tryp % Fold Act. The essentials:
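N-His-tagged SIRT1 (10 nM), expressed in E. coli, was incubated with 0.5 μM Ac-RHKK(Ac)W-NH2 peptide and 120 μM NAD+ for 25 min at 25 °C in HEPES pH 7.5 with […]. The reaction was stopped with formic acid and O-acetyl-ADP-ribose or deacetylated peptide was quantified by mass spectrometry. Results are given as EC1.5 and percent maximal activation relative to DMSO control.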

Assay [2] has as its target mini-hSIRT1. Briefly: Inhibition of mini-hSIRT1 constructs compared with the full-length enzyme. Type of assay: biochemical, human. The protocol: Final concentrations of the PNC1/GDH coupling system components used were 20 units/mL bovine GDH (Sigma-Aldrich), 1 uM yeast PNC1, 3.4 mM α-ketoglutarate, and 220 μM NADH or NADPH. An extinction coefficient of 6.22 mM^−1 cm^−1 and a pathlength of 0.81 cm was used to convert the absorbance at 340 nm to product concentration for the 150 uL reactions used. […] Quenched reactions were diluted 5-fold with 1:1 acetonitrile:methanol and spun at 5,000×g for 10 minutes to precipitate protein before being analyzed with an Agilent RapidFire 200 High-Throughput Mass Spectrometry System (Agilent, Wakefield, Mass.) coupled to an ABSciex API 4000 mass spectrometer fitted with an electrospray ionization source. The p53-based Ac-p53(W5) (Ac-RHKK^AcW-NH2) and FOXO-3a 21-mer (Ac-[…]^Ac[…]-NH2) peptides were obtained from Biopeptide, Inc. Deacetylation assays used the Ac-p53(W5) substrate unless otherwise noted.
Substrate KM determinations were performed by varying one substrate concentration at a fixed, saturating concentration of the second substrate. SIRT1 activation and inhibition assays were run in reaction buffer with 0.05% BSA at 25° C. and analyzed using the OAcADPr assay. Enzyme and compound were pre-incubated for 20 minutes before addition of substrates. […]

Some results are limits rather than exact numbers.

As for `C[C@@H](N)CS(=O)(=O)c1cccc(-c2ccc3c(n2)N(C(=O)Nc2cc(-c4ccnn4C)nc(-c4ccnn4C)c2)[C@H]2CCN3C2)c1` [Example 780], in assay [1], the “Tryp AVG EC1.5 (μM)” value is “A (EC1.5<1 μM)” and the Emax is no less than 150%. For the compound `O=C(Nc1ccccn1)N1c2cc(-c3cccc(C(F)(F)F)c3)ccc2N2CC[C@H]1C2` [Example 785], in assay [1], the “Tryp AVG EC1.5 (μM)” value is on record as “C (EC1.5>25 μM)” and the Emax was less than 150%. In the same order, the values of `O=C(Nc1cccc(-c2cnco2)c1)N1c2cc(-c3cccc(C(F)(F)F)c3)ccc2N2CC[C@H]1C2` [Example 786] are “B (EC1.5 1-25 μM)” and no less than 150%. For the compound `CC(C)(C)OC(=O)NCCNC(=N)c1ccc(NC(=O)N2c3nc(-c4cccc(C(F)(F)F)c4)ccc3N3CCC[C@H]2C3)cc1` [Example 788], in assay [1], the “Tryp AVG EC1.5 (μM)” value is recorded as “A (EC1.5<1 μM)” and the Emax was no less than 150%.

On to `CC(=O)NCc1ccc(NC(=O)N2c3nc(-c4cccc(C(F)(F)F)c4)ccc3N3CCC[C@H]2C3)cc1` [Example 790], for which, in assay [1], the “Tryp AVG EC1.5 (μM)” value was “A (EC1.5<1 μM)” and the Emax was no less than 150%. As for `N=C(NCCN)c1ccc(NC(=O)N2c3nc(-c4cccc(C(F)(F)F)c4)ccc3N3CCC[C@H]2C3)cc1` [Example 792], in assay [1], the “Tryp AVG EC1.5 (μM)” value is on record as “A (EC1.5<1 μM)” and the Emax is no less than 150%.

For the compound `CC(C)(C)OC(=O)NCc1ccc(NC(=O)N2c3nc(-c4cccc(C(F)(F)F)c4)ccc3N3CC[C@H]2C3)cc1` [Example 793], in assay [1], the “Tryp AVG EC1.5 (μM)” value is “B (EC1.5 1-25 μM)” and the Emax is no less than 150%. For `CC(C)(C)OC(=O)NCc1cccc(-c2ccc3c(n2)C(C(=O)Nc2ccncc2)[C@H]2CCN3C2)c1` (some centres unmarked) [Example 794], in that order: “B (EC1.5 1-25 μM)” and no less than 150%. For `CC(C)(C)OC(=O)NCc1cccc(-c2ccc3c(n2)N(C(=O)Nc2ccncc2)[C@H]2CCCN3C2)c1` [Example 795], in that order: “B (EC1.5 1-25 μM)” and no less than 150%. Consider `O=C(NCc1ccc(NC(=O)N2c3nc(-c4cccc(C(F)(F)F)c4)ccc3N3CC[C@H]2C3)cc1)OC[C@@H]1[C@@H]2CCC#CCC[C@@H]21` [Example 796], for which, in assay [1], the “Tryp AVG EC1.5 (μM)” value was “B (EC1.5 1-25 μM)” and the Emax is no less than 150%.

Take `C#CCOc1cccc(NC(=O)N2c3nc(-c4cccc(C5(C(F)(F)F)N=N5)c4)ccc3N3CC[C@H]2C3)c1` [Example 797]: in assay [1], the “Tryp AVG EC1.5 (μM)” value is given as “A (EC1.5<1 μM)” and the Emax was no less than 150%. Take `C#CCCCNc1nccc(NC(=O)N2c3nc(-c4cccc(C5(C(F)(F)F)N=N5)c4)ccc3N3CC[C@H]2C3)n1` [Example 798]: in assay [1], the “Tryp AVG EC1.5 (μM)” value is given as “A (EC1.5<1 μM)” and the Emax was no less than 150%. For `[N-]=[N+]=NCC(=O)NCc1ccc(NC(=O)N2c3nc(-c4cccc(C(F)(F)F)c4)ccc3N3CC[C@H]2C3)cc1` [Example 799], in that order: “A (EC1.5<1 μM)” and no less than 150%.

As for `C#CCOc1cc(-c2ccc3c(n2)N(C(=O)Nc2cccc(C4(C(F)(F)F)N=N4)c2)[C@H]2CCN3C2)cc(C(F)(F)F)c1` [Example 800], in assay [1], the “Tryp AVG EC1.5 (μM)” value is given as “C (EC1.5>25 μM)” and the Emax was less than 150%. For `C#CCOc1cccc(NC(=O)N2c3nc(-c4ccc(C5(C(F)(F)F)N=N5)cc4)ccc3N3CC[C@H]2C3)c1` [Example 802], in that order: “B (EC1.5 1-25 μM)” and no less than 150%.

Take `C#Cc1ccc(NC(=O)N2c3nc(-c4cccc(C5(C(F)(F)F)N=N5)c4)ccc3N3CC[C@H]2C3)nc1` [Example 803]: in assay [1], the “Tryp AVG EC1.5 (μM)” value is “A (EC1.5<1 μM)” and the Emax is no less than 150%. In the same order, the values of `C#CCNc1nccc(NC(=O)N2c3nc(-c4cccc(C5(C(F)(F)F)N=N5)c4)ccc3N3CC[C@H]2C3)n1` [Example 804] are “A (EC1.5<1 μM)” and no less than 150%.

Regarding `C#CCNc1nccc(NC(=O)N2c3nc(-c4ccc(C5(C(F)(F)F)N=N5)cc4)ccc3N3CC[C@H]2C3)n1` [Example 805], in assay [1], the “Tryp AVG EC1.5 (μM)” value was “B (EC1.5 1-25 μM)” and the Emax is no less than 150%. In the same order, the values of `[N-]=[N+]=NCc1cc(N=[N+]=[N-])cc(-c2ccc3c(n2)N(C(=O)Nc2ccc(F)cn2)[C@H]2CCN3C2)c1` [Example 806] are “A (EC1.5<1 μM)” and no less than 150%. In the case of `C#Cc1ccc(NC(=O)N2c3nc(-c4ccc(C5(C(F)(F)F)N=N5)cc4)ccc3N3CC[C@H]2C3)nc1` [Example 807], in assay [1], the “Tryp AVG EC1.5 (μM)” value is on record as “C (EC1.5>25 μM)” and the Emax is less than 150%.

As for `[N-]=[N+]=NCc1cc(N=[N+]=[N-])cc(-c2ccc3c(n2)N(C(=O)Nc2cnccn2)[C@H]2CCN3C2)c1` [Example 808], in assay [1], the “Tryp AVG EC1.5 (μM)” value is on record as “A (EC1.5<1 μM)” and the Emax is no less than 150%. For `C#CCNc1nccc(NC(=O)N2c3nc(-c4cccc(C5(C(F)(F)F)N=N5)c4)ccc3N3CC[C@H]2C3)n1` [Example 809], in that order: “B (EC1.5 1-25 μM)” and no less than 150%. Take `O=C(Nc1ccncc1)N1c2nc(-c3cccc(C(F)(F)F)c3)ccc2N2CC[C@H]1C2` [Example 817]: in assay [1], the “Tryp AVG EC1.5 (μM)” value is “A (EC1.5<1 μM)” and the Emax was no less than 150%.

As to `O=C(Nc1cccc(OC[C@H](O)CO)n1)N1c2nc(-c3cccc(C(F)(F)F)c3)ccc2N2CC[C@H]1C2` [Example 818], in assay [1], the “Tryp AVG EC1.5 (μM)” value is reported as “A (EC1.5<1 μM)” and the Emax is no less than 150%.

With `O=C(Nc1ccccn1)N1c2nc(-c3cccc(C(F)(F)F)c3)ccc2N2CCC[C@H]1C2` [Example 820], in assay [1], the “Tryp AVG EC1.5 (μM)” value is given as “A (EC1.5<1 μM)” and the Emax was no less than 150%. In the same order, the values of `O=C(Nc1ccncc1)N1c2nc(-c3cccc(C(F)(F)F)c3)ccc2N2CCC[C@H]1C2` [Example 821] are “A (EC1.5<1 μM)” and no less than 150%. For `O=C(Nc1cccnn1)N1c2nc(-c3cccc(Cl)c3)ccc2N2CC[C@H]1C2` [Example 822], in that order: “A (EC1.5<1 μM)” and no less than 150%. For `O=C(Nc1ccccn1)N1c2nc(-c3cccc(C(F)(F)F)c3)ccc2N2CC[C@@H]1C2` [Example 823], in that order: “A (EC1.5<1 μM)” and no less than 150%. Regarding `O=C(Nc1ccncc1)N1c2nc(-c3cccc(C(F)(F)F)c3)ccc2N2CC[C@@H]1C2` [Example 824], in assay [1], the “Tryp AVG EC1.5 (μM)” value was “A (EC1.5<1 μM)” and the Emax is no less than 150%. On to `NC(=O)c1cccnc1` [NAM, nicotinamide], for which, in assay [2], the “IC50 values, mini-hSIRT1 constructs versus full-length enzyme” value is listed as “comparable”.
